# From patent US20200181597A1, “Composition and Application of Arginine-depleting Agents for Cancer, Obesity, Metabolic Disorders, and Related Complications and Comorbidities” (THE HONG KONG POLYTECHNIC UNIVERSITY, priority 2018, published 2020)
# B1: BCA-6xHis-ABD fusion protein BHA (SEQ ID NO: 75) (protein)
# chain: MKPISIIGVPMDLGQTRRGPDMGPSAMRYAGVIERLERLHYDIEDLGDIPIGKAERLHEQGDSRLRNLKAVAEANEKLAAAVDQVVQRGRFPLVLGGDHSIAIGTLAGVAKHYERLGVIWYDAHGDVNTAETSPSGNIHGMPLAASLGFGHPALTQIGGYCPKIKPEHVVLIGVRSLDEGEKKFIREKGIKIYTMHEVDRLGMTRVMEETIAYLKERTDGVHLSLDLDGLDPSDAPGVGTPVIGGLTYRESHLAMEMLAEAQIITSAEFVEVNPILDERNKTASVAVALMGSLFGEKLMHHHHHHAQHDEAVDANSLAEAKVLANRELDKYGVSDYYKNLINNAKTVEGVKALIDEILAALP
# B2: N-ABD-rhArg fusion protein (SEQ ID NO: 49) (enzyme)
# chain: MHHHHHHDEAVDANSLAEAKVLANRELDKYGVSDYYKNLINNAKTVEGVKALIDEILAALPSGSNNNNNNGSGGMSAKSRTIGIIGAPFSKGQPRGGVEEGPTVLRKAGLLEKLKEQECDVKDYGDLPFADIPNDSPFQIVKNPRSVGKASEQLAGKVAEVKKNGRISLVLGGDHSLAIGSISGHARVHPDLGVIWVDAHTDINTPLTTTSGNLHGQPVSFLLKELKGKIPDVPGFSWVTPCISAKDIVYIGLRDVDPGEHYILKTLGIKYFSMTEVDRLGIGKVMEETLSYLLGRKKRPIHLSFDVDGLDPSFTPATGTPVVGGLTYREGLYITEEIYKTGLLSGLDIMEVNPSLGKTPEEVTRTVNTAVAITLACFGLAREGNHKPIDYLNPPK
# notes: It was expressed in E. coli ER2566 and purified on a Ni-IDA column
# B3: BCA: bacterial arginase (Bacillus caldovelox arginase) (protein, UniProt P53608 1-299, looked up)
# Arginase: MKPISIIGVPMDLGQTRRGVDMGPSAMRYAGVIERLERLHYDIEDLGDIPIGKAERLHEQGDSRLRNLKAVAEANEKLAAAVDQVVQRGRFPLVLGGDHSIAIGTLAGVAKHYERLGVIWYDAHGDVNTAETSPSGNIHGMPLAASLGFGHPALTQIGGYSPKIKPEHVVLIGVRSLDEGEKKFIREKGIKIYTMHEVDRLGMTRVMEETIAYLKERTDGVHLSLDLDGLDPSDAPGVGTPVIGGLTYRESHLAMEMLAEAQIITSAEFVEVNPILDERNKTASVAVALMGSLFGEKLM
# What was measured:
# [1] = tested on: MDA-MB-231 breast cancer cells; assay: cells; type: cell-based, human; conditions: Homo sapiens
# Description: (§1) Breast cancer cell lines (e.g. human MCF-7 and MDA-MB-231 cells) were used in these studies. Cancer cells (5×10^3 cells) were seeded in 96-well plates (TPP) with […] complete medium. The plates were incubated in incubator overnight and the cells were allowed to adhere to the plates. […] Each dosage was triplicated in 3 wells to obtain the average change of cell viability. […] The plates were put back into the incubator and further incubated for 4 h. To dissolve the insoluble compound, formazan, formed by MTT, 100 μl of 10% SDS in 0.01 M HCl was added. The plates were incubated at 37° C. overnight. The color change was measured by spectrophotometer at 570 nm. Control set up (without any drug) was used as base to calculate percentage of cell viability which was used to plot the dose response curve by the software Prism 6.0 (GraphPad) to find the IC50 values. […] CalcuSyn software (Biosoft) was used for calculating the CI values.
# MCF-7 cancer cells = assay: cells; type: cell-based, human; conditions: Homo sapiens
# Description: as §1
# HCT116 [2] = assay: cells; conditions: Homo sapiens, HCT-116, 72 h
# Description: (§2) The in vitro efficacy of ABD and rhArg fusion protein was tested on human colon cancer cell lines. Human colon cancer cell lines (HCT116, LOVO and HT29) were seeded in 96-well plate at densities of 5×10^3 cells/well. After 1 day of incubation, the culture medium was replaced with medium containing different concentrations (2, 0.4, 0.08, 0.016 and 0.0032 U/ml) of N-ABD094-rhArg (SEQ ID NO: 50). MTT assay was conducted at Day 3 [3 days after N-ABD094-rhArg (SEQ ID NO: 50) treatment] to determine the IC50 values. The culture medium was replaced with MTT solution (1 mg/ml) (Invitrogen) and incubated at 37° C. for 4 h. After incubation, MTT solution was replaced with dimethyl sulfoxide (DMSO), and the absorbance at 570 nm was measured with a reference of 650 nm. The cell viability was determined by dividing the absorbance of N-ABD094-rhArg-treated cells by the average absorbance of untreated cells. […] Three independent sets of experiments (n=3) were performed for each cell line.
# (§3) MTT assay was conducted at Day 3. Three independent sets of experiments (n=3) were performed for each cell line.
# (§4) For drug-combination assay, a non-constant ratio analysis was performed (Hastak et al., 2010, Cancer Res. 70(20):7970-7980). Colon cancer cells were seeded and after 1 day of incubation, the culture medium was replaced with medium containing different concentrations of N-ABD094-rhArg (SEQ ID NO: 50) (2, 0.4, 0.08, 0.016, 0.0032 U/ml) combined with fixed amount of CQ according to its IC50. MTT assay was conducted at Day 3. The combination index (CI) of combined N-ABD094-rhArg (SEQ ID NO: 50) and CQ treatment was analyzed by software CalcuSyn version 2.1. Three independent sets of experiments (n=3) were performed for each cell line.
# HT29 = assay: cells; conditions: Homo sapiens, HT-29, 72 h
# Description: as §2, §3, §4
# LOVO = assay: cells; conditions: Homo sapiens, LoVo, 72 h
# Description: as §2, §3, §4
# [3] = molecular target: human serum albumin (HSA), P02768
# [4] = molecular target: human serum albumin (HSA) (human, UniProt P02768 25-609); assay: non-denaturing PAGE; 30 pmol HSA titrated with 7.5-120 pmol fusion protein
# A375 = assay: MTT cytotoxicity of ADI, BCA, ADC; type: cell-based, human; conditions: A375, 72 h
# Description: (§5) For cell proliferation assay, cancer cells (5×10^3) in a volume of 100 μL of growth medium were seeded to each well of a 96-well plate and incubated for 24 h. The culture medium was replenished by arginine free medium (AFM) supplemented with different concentrations of arginine, fresh medium containing various concentrations of different arginine depleting enzymes as well as using these enzymes in combination with citrulline. The plate was incubated for an additional 1-3 days at 37° C. in an incubator containing a humidified atmosphere of 95% air and 5% CO2.
# (§6) Quantitative cell proliferation assays were performed using MTT (3-[4,5-dimethylthiazol-2-yl]-2,5-diphenyl tetrazolium bromide) assays as widely described elsewhere. The amount of arginine depleting enzyme required to kill 50% of the cells in a culture was defined as IC50.
# (§7) The cytotoxicities of arginine deiminase (ADI), bacterial arginase (BCA) and arginine decarboxylase (ADC) were determined in a comparative study in five tumor cell lines: A375, HeLa, BxPC-3, PANC-1, and HCT116.
# (§8) Table 6. IC50 and maximum cytotoxicity of ADI, BCA and ADC on five human cancer cell lines. Cells were treated for 72 h before MTT analysis. Data are the mean of three experiments performed in triplicate. IC50 value is defined as the amount of enzyme needed to achieve 50% inhibition of cell viability. Maximum cytotoxicity is expressed as the maximum percentage of nonviable cells achieved by each enzyme. ADI-resistant cells are defined as cells of which more than 50% survive under the maximum dose of ADI tested.
# HeLa = assay: MTT cytotoxicity of ADI, BCA, ADC; type: cell-based, human; conditions: 72 h
# Description: as §5, §6, §7, §8
# HCT116 [5] = assay: MTT cytotoxicity of ADI, BCA, ADC; type: cell-based, human; conditions: HCT116, 72 h
# Description: as §5, §6, §7, §8
# PANC-1 = assay: MTT cytotoxicity of ADI, BCA, ADC; type: cell-based, human; conditions: PANC-1, 72 h
# Description: as §5, §6, §7, §8
# BxPC-3 = assay: MTT cytotoxicity of ADI, BCA, ADC; type: cell-based, human; conditions: BxPC-3, 72 h
# Description: as §5, §6, §7, §8
# [6] = MDA-MB-231, 72 h, read-out: Mean of % Cell Viability
# [7] = MCF7, read-out: Mean of % Cell Viability
molecule,measurement,setting,value
"CCN(CC)CCCC(C)Nc1ccnc2cc(Cl)ccc12 (stereo not drawn) [CQ, chloroquine]",IC50,[1]; MDA-MB-231,73.4 µM
same,viability at 0.16 µM,[1]; [6],99%
same,viability at 0.8 µM,[1]; [6],98.1%
same,viability at 4 µM,[1]; [6],82.2%
same,viability at 20 µM,[1]; [6],75.2%
same,viability at 100 µM,[1]; [6],43.2%
same,IC50,MCF-7 cancer cells; MCF7,67.2 µM
same,viability at 0.16 µM,MCF-7 cancer cells; [7],96.3%
same,viability at 0.8 µM,MCF-7 cancer cells; [7],85.9%
same,viability at 4 µM,MCF-7 cancer cells; [7],83.3%
same,viability at 20 µM,MCF-7 cancer cells; [7],72.4%
same,viability at 100 µM,MCF-7 cancer cells; [7],40.7%
same,IC50,HCT116 [2],> 100 µM
same,IC50,HT29,71 µM
same,IC50,LOVO,15 µM
B1,"specific activity (arginine catabolic activity, DAMO assay) at BHA:HSA mole ratios 1:10, 1:5, 1:1, 5:1 and 10:1",[3],approximately 200 U/mg
B2,binding result,[4],binds
B3,IC50,A375,0.12 µg/mL
same,Maximum cytotoxicity,A375,86.92%
same,IC50,HeLa,1.25 µg/mL
same,Maximum cytotoxicity,HeLa,61.14%
same,IC50,HCT116 [5],0.22 µg/mL
same,Maximum cytotoxicity,HCT116 [5],81.05%
same,IC50,PANC-1,1.81 µg/mL
same,Maximum cytotoxicity,PANC-1,63.01%
same,IC50,BxPC-3,0.44 µg/mL
same,Maximum cytotoxicity,BxPC-3,84.82%
